Results taken from US8962608B2, “Cycloalkylnitrile pyrazole carboxamides as janus kinase inhibitors” (Merck Sharp & Dohme Corp., priority 2011, dated 2015).

Experiments:
[1] = target: JAK2 (recombinant purified GST-tagged catalytic domain) (Homo sapiens (Human), UniProt O60674);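 note: biochemical JAK kinase assay with HTRF detection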
[2] = target: JAK1 (recombinant purified GST-tagged catalytic domain) (Homo sapiens (Human), UniProt P23458);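 note: biochemical assay with HTRF read-out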
JAK1 (recombinant purified GST-tagged catalytic domain), sequence (P23458 875-1153): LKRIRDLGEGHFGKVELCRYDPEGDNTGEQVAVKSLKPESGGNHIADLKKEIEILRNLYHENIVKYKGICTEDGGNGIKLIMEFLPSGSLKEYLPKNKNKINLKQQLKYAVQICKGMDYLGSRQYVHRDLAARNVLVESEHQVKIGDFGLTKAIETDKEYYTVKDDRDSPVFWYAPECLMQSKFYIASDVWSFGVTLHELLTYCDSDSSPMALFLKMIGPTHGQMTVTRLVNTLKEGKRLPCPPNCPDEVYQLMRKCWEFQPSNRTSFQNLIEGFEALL

JAK2 (recombinant purified GST-tagged catalytic domain), sequence (O60674 849-1124): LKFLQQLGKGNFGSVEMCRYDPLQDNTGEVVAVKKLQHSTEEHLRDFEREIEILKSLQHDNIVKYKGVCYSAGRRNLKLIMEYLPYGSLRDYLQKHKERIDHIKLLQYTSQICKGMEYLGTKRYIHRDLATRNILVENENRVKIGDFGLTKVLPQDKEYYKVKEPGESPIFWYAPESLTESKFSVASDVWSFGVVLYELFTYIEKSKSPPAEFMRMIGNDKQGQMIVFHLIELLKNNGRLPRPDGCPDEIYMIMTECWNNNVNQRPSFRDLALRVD

Row | Structure (SMILES) | IC50 [1] [nM] | IC50 [2] [nM]
1 | CN(C)[C@@H]1CC[C@H](C#N)[C@@H](n2cc(C(N)=O)c(Nc3ccc(F)cc3)n2)C1 (mixture of isomers) [Example 6-2, 1-[(1S,2S,5R and 1R,2R,5S)-2-cyano-5-(dimethylamino)cyclohexyl]-3-[(4-fluorophenyl)amino]-1H-pyrazole-4-carboxamide] | > 1500 | 305
2 | CC1CCC(C#N)C(n2cc(C(N)=O)c(Nc3ccccc3)n2)C1 (stereo not shown) [Example 11-6, 1-(2-cyano-5-methylcyclohexyl)-3-(phenylamino)-1H-pyrazole-4-carboxamide] | 38 | 7
3 | CS(=O)(=O)N[C@H]1CC[C@H](n2cc(C(N)=O)c(Nc3ccc(F)cc3)n2)[C@@H](C#N)C1 (mixture of isomers) [Example 38-1, 1-{(1S,2S,4S and 1R,2R,4R)-2-cyano-4-[(methylsulfonyl)amino]cyclohexyl}-3-[(4-fluorophenyl)amino]-1H-pyrazole-4-carboxamide] | 14 | 2
4 | N#C[C@@H]1CCC2(C[C@H]1n1cc(C(N)=O)c(Nc3ccccc3)n1)OCCO2 (single isomer, unassigned) [Example 45-1, 1-[(7R,8R or 7S,8S)-8-Cyano-1,4-dioxaspiro[4.5]dec-7-yl]-3-(phenylamino)-1H-pyrazole-4-carboxamide] | 235 | 44
5 | N#C[C@@H]1CCC2(C[C@H]1n1cc(C(N)=O)c(Nc3ccccc3)n1)OCCO2 (single isomer, unassigned) [Example 45-3, 1-[(7R,8R or 7S,8S)-8-Cyano-1,4-dioxaspiro[4.5]dec-7-yl]-3-(phenylamino)-1H-pyrazole-4-carboxamide] | 308 | 147
